Reference: ChEMBL document CHEMBL1153245, “A profile of the in vitro anti-tumor activity of imidazolium-based ionic liquids” (2010)

How the values were obtained:
Type in all cases: functional
[1] = tested on: HCT-15; experiment: Anticancer activity against human HCT15 cells assessed cell growth at 10 uM after 48 hrs by sulforhodamine B assay relative to control
[2] = tested on: U-251; experiment: Anticancer activity against human U251 cells assessed cell growth at 10 uM after 48 hrs by sulforhodamine B assay relative to control
[3] = tested on: T47D; experiment: Anticancer activity against human T47D cells assessed cell growth at 10 uM after 48 hrs by sulforhodamine B assay relative to control
[4] = tested on: SK-MEL-28; experiment: Anticancer activity against human SK-MEL-28 cells assessed cell growth at 10 uM after 48 hrs by sulforhodamine B assay relative to control
[5] = tested on: MDA-MB-231; experiment: Anticancer activity against human MDA-MB-231 cells assessed cell growth at 10 uM after 48 hrs by sulforhodamine B assay relative to control
[6] = tested on: OVCAR-3; experiment: Anticancer activity against human OVCAR-3 cells assessed cell growth at 10 uM after 48 hrs by sulforhodamine B assay relative to control
[7] = tested on: HOP-62; experiment: Anticancer activity against human HOP62 cells assessed cell growth at 10 uM after 48 hrs by sulforhodamine B assay relative to control
[8] = tested on: SN12C; experiment: Anticancer activity against human SN12C cells assessed cell growth at 10 uM after 48 hrs by sulforhodamine B assay relative to control
[9] = tested on: SF-295; experiment: Anticancer activity against human SF295 cells assessed cell growth at 10 uM after 48 hrs by sulforhodamine B assay relative to control
[10] = tested on: SK-MEL-2; experiment: Anticancer activity against human SK-MEL-2 cells assessed cell growth at 10 uM after 48 hrs by sulforhodamine B assay relative to control
[11] = tested on: NCI/ADR-RES; experiment: Anticancer activity against human NCI/ADR-RES cells assessed cell growth at 10 uM after 48 hrs by sulforhodamine B assay relative to control
[12] = tested on: HCT-116; experiment: Anticancer activity against human HCT116 cells assessed cell growth at 10 uM after 48 hrs by sulforhodamine B assay relative to control
[13] = tested on: TK-10; experiment: Anticancer activity against human TK10 cells assessed cell growth at 10 uM after 48 hrs by sulforhodamine B assay relative to control
[14] = tested on: UO-31; experiment: Anticancer activity against human UO31 cells assessed cell growth at 10 uM after 48 hrs by sulforhodamine B assay relative to control
[15] = tested on: UACC-257; experiment: Anticancer activity against human UACC257 cells assessed cell growth at 10 uM after 48 hrs by sulforhodamine B assay relative to control
[16] = tested on: SK-MEL-5; experiment: Anticancer activity against human SK-MEL-5 cells assessed cell growth at 10 uM after 48 hrs by sulforhodamine B assay relative to control
[17] = tested on: HCC 2998; experiment: Anticancer activity against human HCC2998 cells assessed cell growth at 10 uM after 48 hrs by sulforhodamine B assay relative to control
[18] = tested on: SNB-75; experiment: Anticancer activity against human SNB75 cells assessed cell growth at 10 uM after 48 hrs by sulforhodamine B assay relative to control
[19] = tested on: CAKI-1; experiment: Anticancer activity against human Caki1 cells assessed cell growth at 10 uM after 48 hrs by sulforhodamine B assay relative to control
[20] = tested on: KM12; experiment: Anticancer activity against human KM12 cells assessed cell growth at 10 uM after 48 hrs by sulforhodamine B assay relative to control
[21] = tested on: PC-3; experiment: Anticancer activity against human PC3 cells assessed cell growth at 10 uM after 48 hrs by sulforhodamine B assay relative to control
[22] = Anticancer activity against human RPMI8266 cells assessed cell growth at 10 uM after 48 hrs by sulforhodamine B assay relative to control
[23] = tested on: OVCAR-8; experiment: Anticancer activity against human OVCAR8 cells assessed cell growth at 10 uM after 48 hrs by sulforhodamine B assay relative to control
[24] = tested on: SK-OV-3; experiment: Anticancer activity against human SKOV3 cells assessed cell growth at 10 uM after 48 hrs by sulforhodamine B assay relative to control
[25] = tested on: A498; experiment: Anticancer activity against human A498 cells assessed cell growth at 10 uM after 48 hrs by sulforhodamine B assay relative to control
[26] = tested on: OVCAR-5; experiment: Anticancer activity against human OVCAR5 cells assessed cell growth at 10 uM after 48 hrs by sulforhodamine B assay relative to control
[27] = tested on: HOP-92; experiment: Anticancer activity against human HOP92 cells assessed cell growth at 10 uM after 48 hrs by sulforhodamine B assay relative to control
[28] = tested on: COLO 205; experiment: Anticancer activity against human COLO205 cells assessed cell growth at 10 uM after 48 hrs by sulforhodamine B assay relative to control
[29] = tested on: NCI-H460; experiment: Anticancer activity against human NCI-H460 cells assessed cell growth at 10 uM after 48 hrs by sulforhodamine B assay relative to control
[30] = tested on: IGROV-1; experiment: Anticancer activity against human IGROV1 cells assessed cell growth at 10 uM after 48 hrs by sulforhodamine B assay relative to control
[31] = tested on: MDA-MB-468; experiment: Anticancer activity against human MDA-MB-468 cells assessed cell growth at 10 uM after 48 hrs by sulforhodamine B assay relative to control
[32] = tested on: NCI-H522; experiment: Anticancer activity against human NCI-H522 cells assessed cell growth at 10 uM after 48 hrs by sulforhodamine B assay relative to control
[33] = tested on: LOX IMVI; experiment: Anticancer activity against human LOXIMVI cells assessed cell growth at 10 uM after 48 hrs by sulforhodamine B assay relative to control
[34] = tested on: SNB-19; experiment: Anticancer activity against human SNB19 cells assessed cell growth at 10 uM after 48 hrs by sulforhodamine B assay relative to control
[35] = tested on: SF-539; experiment: Anticancer activity against human SF539 cells assessed cell growth at 10 uM after 48 hrs by sulforhodamine B assay relative to control
[36] = tested on: M14; experiment: Anticancer activity against human M14 cells assessed cell growth at 10 uM after 48 hrs by sulforhodamine B assay relative to control
[37] = tested on: HT-29; experiment: Anticancer activity against human HT-29 cells assessed cell growth at 10 uM after 48 hrs by sulforhodamine B assay relative to control
[38] = tested on: UACC-62; experiment: Anticancer activity against human UACC62 cells assessed cell growth at 10 uM after 48 hrs by sulforhodamine B assay relative to control
[39] = tested on: OVCAR-4; experiment: Anticancer activity against human OVCAR4 cells assessed cell growth at 10 uM after 48 hrs by sulforhodamine B assay relative to control
[40] = tested on: NCI-H322M; experiment: Anticancer activity against human NCI-H322M cells assessed cell growth at 10 uM after 48 hrs by sulforhodamine B assay relative to control
[41] = tested on: BT-549; experiment: Anticancer activity against human BT549 cells assessed cell growth at 10 uM after 48 hrs by sulforhodamine B assay relative to control
[42] = tested on: A549; experiment: Anticancer activity against human A549 cells assessed cell growth at 10 uM after 48 hrs by sulforhodamine B assay relative to control
[43] = tested on: NCI-H23; experiment: Anticancer activity against human NCI-H23 cells assessed cell growth at 10 uM after 48 hrs by sulforhodamine B assay relative to control

COCC[n+]1ccn(C)c1.O=S(=O)([N-]S(=O)(=O)C(F)(F)F)C(F)(F)F
Activity [1]: 101.44% | Activity [2]: 91.58% | Activity [3]: 100.59% | Activity [4]: 106.63% | Activity [5]: 120.14% | Activity [6]: 116.33% | Activity [7]: 93.93% | Activity [8]: 96.96% | Activity [9]: 112.28% | Activity [10]: 93.96% | Activity [11]: 100.1% | Activity [12]: 102.12% | Activity [13]: 123.77% | Activity [14]: 71.37% | Activity [15]: 100.25% | Activity [16]: 100.51% | Activity [17]: 101.04% | Activity [18]: 80.79% | Activity [19]: 91.87% | Activity [20]: 105.57% | Activity [21]: 78.17% | Activity [22]: 62.23% | Activity [23]: 96.68% | Activity [24]: 107.49% | Activity [25]: 75.43% | Activity [26]: 112.96% | Activity [27]: 71.88% | Activity [28]: 130.61% | Activity [29]: 108.75% | Activity [30]: 77.53% | Activity [31]: 106.36% | Activity [32]: 84.3% | Activity [33]: 92.96% | Activity [34]: 93.88% | Activity [35]: 94.09% | Activity [36]: 110.1% | Activity [37]: 111.85% | Activity [38]: 105.79% | Activity [39]: 105.25% | Activity [40]: 102.08% | Activity [41]: 96.44% | Activity [42]: 101.69% | Activity [43]: 96.12%

CCCCCCCCCCCCCCCCCC[n+]1ccn(C)c1.[Cl-]
Activity [1]: 3.3% | Activity [2]: -0.67% | Activity [3]: 35.89% | Activity [4]: -49.38% | Activity [5]: -66.25% | Activity [6]: -48.71% | Activity [7]: -58.64% | Activity [8]: -52.54% | Activity [9]: -10.43% | Activity [10]: -61.28% | Activity [11]: 20.86% | Activity [12]: -18.25% | Activity [13]: -70.24% | Activity [14]: -61.43% | Activity [15]: -38% | Activity [16]: -81.11% | Activity [17]: -80.71% | Activity [18]: -74.36% | Activity [19]: -67.34% | Activity [20]: -47.8% | Activity [21]: -54.01% | Activity [22]: 93.78% | Activity [23]: -20.19% | Activity [24]: 4.83% | Activity [25]: -50.94% | Activity [26]: -61.54% | Activity [27]: -51.3% | Activity [28]: 1.82% | Activity [29]: -62.94% | Activity [30]: -43.92% | Activity [31]: -42.33% | Activity [32]: -74.88% | Activity [33]: 0.13% | Activity [34]: -47.53% | Activity [35]: -85.24% | Activity [36]: -33.7% | Activity [37]: -42.14% | Activity [38]: -70.86% | Activity [39]: -19.32% | Activity [40]: 5.3% | Activity [41]: -55.64% | Activity [42]: -15.21% | Activity [43]: -48.94%

CCCCCCCC[n+]1ccn(C)c1.F[P-](F)(F)(F)(F)F
Activity [1]: 97.27% | Activity [2]: 70.41% | Activity [3]: 73.53% | Activity [4]: 95.95% | Activity [5]: 65.53% | Activity [6]: 86.51% | Activity [7]: 79.02% | Activity [8]: 86.03% | Activity [9]: 79.54% | Activity [10]: 83.03% | Activity [11]: 97.14% | Activity [12]: 56.26% | Activity [13]: 57.87% | Activity [14]: 77.77% | Activity [15]: 72.49% | Activity [16]: 76.82% | Activity [17]: 75.73% | Activity [18]: 70.71% | Activity [19]: 56.66% | Activity [20]: 71.32% | Activity [21]: 74.78% | Activity [22]: 135.51% | Activity [23]: 78.96% | Activity [24]: 69.29% | Activity [25]: 85.75% | Activity [26]: 96.06% | Activity [27]: 96.72% | Activity [28]: 66.27% | Activity [29]: 92.86% | Activity [30]: 76.25% | Activity [31]: 21% | Activity [32]: 65.58% | Activity [33]: 70.03% | Activity [34]: 82.83% | Activity [35]: 67.02% | Activity [36]: 81.87% | Activity [37]: 61.42% | Activity [38]: 90.01% | Activity [39]: 52.01% | Activity [40]: 89.47% | Activity [41]: 60.35% | Activity [42]: 82.75% | Activity [43]: 51.9%
